Test results published in patent publication US11427606B2, “Azithromycin derivatives containing a phosphonium ion as anticancer agents” (Rising Tide Foundation, priority 2017, dated 2022).

System: MDA-231 cancer cells
Test: Inhibition of proliferation assay: cell confluence (IncuCyte imaging)
Type: cell-based
Details: MDA-231 cells, IncuCyte images every 3 h over 4-5 d, relative confluence normalised to time zero
Source text: Inhibition of Proliferation Assay
The confluence value is a surrogate for cell proliferation and growth. The value is expressed as a percent confluence, which represents the fraction of culture dish-surface that is occupied by cells. As the number of cells in the dish increases over time due to proliferation, so will their coverage of that surface increase. Expansion of the cell population on the cell culture-dish surface and confluence have mostly a linear relationship until the cells on the plate surface begin to reach saturation or maximum density.
Confluence is determined based on image analysis. Image based software can identify objects in the image field base on changes to pixel density in a grey scale image. The software can then assign a mask to those pixels within the object. Objects can be ‘gated’ out based on size and shape. To determine cell confluence, images of cells are first masked as objects. The surface area of the image that is masked is measured and compared to the total surface area of the culture dish surface to obtain a percent confluence.
MDA-231 cancer cells were obtained from ATCC. Cells were cultured in Dulbecco's Modified Eagle Medium (DMEM) supplemented with 10% Fetal Bovine Serum (FBS), 2 mM Glutamax, 1 mM Non Essential Amino Acid (NEAA) solution and 1 mM sodium pyruvate. […] Final DMSO concentrations were […]. Images were acquired with an IncuCyte Live Cell Imaging microscopy (Essen Bioscience) at every 3 h under cell culture conditions with 10× objective over 4-5 d. Cell confluence was calculated from one field of view per well using the IncuCyte in-built algorithm. Relative confluence values were obtained by normalising each value to the time zero value in each sample.

SMILES | % Confluence (compound at 10 uM) | % Confluence (compound at 100 uM)
CC[C@H]1OC(=O)[C@H](C)[C@@H](O[C@H]2C[C@@](C)(OC)[C@@H](O)[C@H](C)O2)[C@H](C)[C@@H](O[C@@H]2O[C@H](C)C[C@H](N(C)C)[C@H]2O)[C@](C)(O)C[C@@H](C)CN(C(=O)CCCCCCC[P+](C)(C)C)[C@H](C)[C@@H](O)[C@]1(C)O.[Cl-] [Example 25, {8-[(2R,3S,4R,5R,8R,10R,11R,12S,13S,14R)-11-{[(2S,3R,4S,6R)-4-(dimethylamino)-3-hydroxy-6-methyloxan-2-yl]oxy}-2-ethyl-3,4,10-trihydroxy-13-{[(2R,4R,5S,6S)-5-hydroxy-4-methoxy-4,6-dimethyloxan-2-yl]oxy}-3,5,8,10,12,14-hexamethyl-15-oxo-1-oxa-6-azacyclopentadecan-6-yl]-8-oxooctyl}trimethylphosphonium chloride] | 124% | –
CC[C@H]1OC(=O)[C@H](C)[C@@H](O[C@H]2C[C@@](C)(OC)[C@@H](O)[C@H](C)O2)[C@H](C)[C@@H](O[C@@H]2O[C@H](C)C[C@H](N(C)C)[C@H]2O)[C@](C)(O)C[C@@H](C)CN(C(=O)CCCCCCCCCCC[PH](c2cccc(C)c2)(c2cccc(C)c2)c2cccc(C)c2)[C@H](C)[C@@H](O)[C@]1(C)O [Example 30, {12-[(2R,3S,4R,5R,8R,10R,11R,12S,13S,14R)-11-{[(2S,3R,4S,6R)-4-(dimethylamino)-3-hydroxy-6-methyloxan-2-yl]oxy}-2-ethyl-3,4,10-trihydroxy-13-{[(2R,4R,5S,6S)-5-hydroxy-4-methoxy-4,6-dimethyloxan-2-yl]oxy}-3,5,8,10,12,14-hexamethyl-15-oxo-1-oxa-6-azacyclopentadecan-6-yl]-12-oxododecyl}tris(3-methylphenyl)phosphonium chloride] | 4.4% | –
CC[C@H]1OC(=O)[C@H](C)[C@@H](O[C@H]2C[C@@](C)(OC)[C@@H](O)[C@H](C)O2)[C@H](C)[C@@H](O[C@@H]2O[C@H](C)C[C@H](N(C)C)[C@H]2O)[C@](C)(O)C[C@@H](C)CN(C(=O)CCCCCCC[P+](c2ccccc2)(c2ccccc2)c2ccccn2)[C@H](C)[C@@H](O)[C@]1(C)O [Example 8, {8-[(2R,3S,4R,5R,8R,10R,11R,12S,13S,14R)-11-{[(2S,3R,4S,6R)-4-(dimethylamino)-3-hydroxy-6-methyloxan-2-yl]oxy}-2-ethyl-3,4,10-trihydroxy-13-{[(2R,4R,5S,6S)-5-hydroxy-4-methoxy-4,6-dimethyloxan-2-yl]oxy}-3,5,8,10,12,14-hexamethyl-15-oxo-1-oxa-6-azacyclopentadecan-6-yl]-8-oxooctyl}diphenyl(pyridine-2-yl)phosphonium hexafluorophosphate(V)] | 83% | –
CC[C@H]1OC(=O)[C@H](C)[C@@H](O[C@H]2C[C@@](C)(OC)[C@@H](O)[C@H](C)O2)[C@H](C)[C@@H](O[C@@H]2O[C@H](C)C[C@H](N(C)C)[C@H]2O)[C@](C)(O)C[C@@H](C)CN(C(=O)CCCCCCCCCCC[P+](C)(c2ccccc2)c2ccccc2)[C@H](C)[C@@H](O)[C@]1(C)O.[Cl-] [Example 22, {12-[(2R,3S,4R,5R,8R,10R,11R,12S,13S,14R)-11-{[(2S,3R,4S,6R)-4-(dimethylamino)-3-hydroxy-6-methyloxan-2-yl]oxy}-2-ethyl-3,4,10-trihydroxy-13-{[(2R,4R,5S,6S)-5-hydroxy-4-methoxy-4,6-dimethyloxan-2-yl]oxy}-3,5,8,10,12,14-hexamethyl-15-oxo-1-oxa-6-azacyclopentadecan-6-yl]-12-oxododecyl}(methyl)diphenylphosphonium chloride] | 137% | –
CC[C@H]1OC(=O)[C@H](C)[C@@H](O[C@H]2C[C@@](C)(OC)[C@@H](O)[C@H](C)O2)[C@H](C)[C@@H](O[C@@H]2O[C@H](C)C[C@H](N(C)C)[C@H]2O)[C@](C)(O)C[C@@H](C)CN(C(=O)CCCCCCC[P+](c2ccc(F)cc2)(c2ccc(F)cc2)c2ccc(F)cc2)[C@H](C)[C@@H](O)[C@]1(C)O [Example 3, {8-[(2R,3S,4R,5R,8R,10R,11R,12S,13S,14R)-11-{[(2S,3R,4S,6R)-4-(dimethylamino)-3-hydroxy-6-methyloxan-2-yl]oxy}-2-ethyl-3,4,10-trihydroxy-13-{[(2R,4R,5S,6S)-5-hydroxy-4-methoxy-4,6-dimethyloxan-2-yl]oxy}-3,5,8,10,12,14-hexamethyl-15-oxo-1-oxa-6-azacyclopentadecan-6-yl]-8-oxooctyl}tris(4-fluorophenyl)phosphonium hexafluorophosphate(V)] | 97.7% | –
CC[C@H]1OC(=O)[C@H](C)[C@@H](O[C@H]2C[C@@](C)(OC)[C@@H](O)[C@H](C)O2)[C@H](C)[C@@H](O[C@@H]2O[C@H](C)C[C@H](N(C)C)[C@H]2O)[C@](C)(O)C[C@@H](C)CN(C(=O)CCCCCCC[P+](c2ccccc2)(c2ccccc2)c2ccccc2CN(C)C)[C@H](C)[C@@H](O)[C@]1(C)O [Example 17, {8-[(2R,3S,4R,5R,8R,10R,11R,12S,13S,14R)-11-{[(2S,3R,4S,6R)-4-(dimethylamino)-3-hydroxy-6-methyloxan-2-yl]oxy}-2-ethyl-3,4,10-trihydroxy-13-{[(2R,4R,5S,6S)-5-hydroxy-4-methoxy-4,6-dimethyloxan-2-yl]oxy}-3,5,8,10,12,14-hexamethyl-15-oxo-1-oxa-6-azacyclopentadecan-6-yl]-8-oxooctyl}({2-[(dimethylamino)methyl]phenyl})diphenylphosphonium hexafluorophosphate(V)] | 93.1% | –
CC[C@H]1OC(=O)[C@H](C)[C@@H](O)[C@H](C)[C@@H](O[C@@H]2O[C@H](C)C[C@H](N(C)C)[C@H]2O)[C@](C)(O)C[C@@H](C)CN(CCCCCCCC[P+](c2ccccc2)(c2ccccc2)c2ccc(N(C)C)cc2)[C@H](C)[C@@H](O)[C@]1(C)O.[I-] [Example 21] | 89.9% | –
CC[C@H]1OC(=O)[C@H](C)[C@@H](O[C@H]2C[C@@](C)(OC)[C@@H](O)[C@H](C)O2)[C@H](C)[C@@H](O[C@@H]2O[C@H](C)C[C@H](N(C)C)[C@H]2O)[C@](C)(O)C[C@@H](C)CN(C(=O)CCCCCCCCCCC[PH](c2ccccc2)(c2ccccc2)C2CCOCC2)[C@H](C)[C@@H](O)[C@]1(C)O [Example 35, {12-[(2R,3S,4R,5R,8R,10R,11R,12S,13S,14R)-11-{[(2S,3R,4S,6R)-4-(dimethylamino)-3-hydroxy-6-methyloxan-2-yl]oxy}-2-ethyl-3,4,10-trihydroxy-13-{[(2R,4R,5S,6S)-5-hydroxy-4-methoxy-4,6-dimethyloxan-2-yl]oxy}-3,5,8,10,12,14-hexamethyl-15-oxo-1-oxa-6-azacyclopentadecan-6-yl]-12-oxododecyl}(oxan-4-yl)diphenylphosphonium chloride] | 97.2% | –
CC[C@H]1OC(=O)[C@H](C)[C@@H](O[C@H]2C[C@@](C)(OC)[C@@H](O)[C@H](C)O2)[C@H](C)[C@@H](O[C@@H]2O[C@H](C)C[C@H](N(C)C)[C@H]2O)[C@](C)(O)C[C@@H](C)CN(C(=O)CCCCCCC[P+](c2cc(C)cc(C)c2)(c2cc(C)cc(C)c2)c2cc(C)cc(C)c2)[C@H](C)[C@@H](O)[C@]1(C)O [Example 16, {8-[(2R,3S,4R,5R,8R,10R,11R,12S,13S,14R)-11-{[(2S,3R,4S,6R)-4-(dimethylamino)-3-hydroxy-6-methyloxan-2-yl]oxy}-2-ethyl-3,4,10-trihydroxy-13-{[(2R,4R,5S,6S)-5-hydroxy-4-methoxy-4,6-dimethyloxan-2-yl]oxy}-3,5,8,10,12,14-hexamethyl-15-oxo-1-oxa-6-azacyclopentadecan-6-yl]-8-oxooctyl}tris(3,5-dimethylphenyl)phosphonium hexafluorophosphate(V)] | 10% | –
CC[C@H]1OC(=O)[C@H](C)[C@@H](O[C@H]2C[C@@](C)(OC)[C@@H](O)[C@H](C)O2)[C@H](C)[C@@H](O[C@@H]2O[C@H](C)C[C@H](N(C)C)[C@H]2O)[C@](C)(O)C[C@@H](C)CN(C(=O)CCCCCCCCCCC[PH](c2ccccc2)(c2ccccc2)C2COC2)[C@H](C)[C@@H](O)[C@]1(C)O [Example 32, {12-[(2R,3S,4R,5R,8R,10R,11R,12S,13S,14R)-11-{[(2S,3R,4S,6R)-4-(dimethylamino)-3-hydroxy-6-methyloxan-2-yl]oxy}-2-ethyl-3,4,10-trihydroxy-13-{[(2R,4R,5S,6S)-5-hydroxy-4-methoxy-4,6-dimethyloxan-2-yl]oxy}-3,5,8,10,12,14-hexamethyl-15-oxo-1-oxa-6-azacyclopentadecan-6-yl]-12-oxododecyl}(oxetan-3-yl)diphenylphosphonium chloride] | 129% | –
CC[C@H]1OC(=O)[C@H](C)[C@@H](O[C@H]2C[C@@](C)(OC)[C@@H](O)[C@H](C)O2)[C@H](C)[C@@H](O[C@@H]2O[C@H](C)C[C@H](N(C)C)[C@H]2O)[C@](C)(O)C[C@@H](C)CN(CCCCCCCC[P+](c2ccc(OC)cc2)(c2ccc(OC)cc2)c2ccc(OC)cc2)[C@H](C)[C@@H](O)[C@]1(C)O.[I-] [Example 13] | 4.8% | –
CC[C@H]1OC(=O)[C@H](C)[C@@H](O[C@H]2C[C@@](C)(OC)[C@@H](O)[C@H](C)O2)[C@H](C)[C@@H](O[C@@H]2O[C@H](C)C[C@H](N(C)C)[C@H]2O)[C@](C)(O)C[C@@H](C)CN(C)[C@H](C)[C@@H](O)[C@]1(C)O [Azithromycin] | 99.1% | 17%
